Results as given in patent US11655216B2 (priority 2016, dated 2023).
Like-named read-outs stand apart in the source and are kept apart here.

Key:
[1] = target: T1, glutathione-S-transferase (GST) tagged LXRalpha LBD (ligand binding domain) (Homo sapiens, UniProt Q13133); assay: biochemical
T1 construct: purchased Invitrogen pv4655
T1 sequence (Q13133 209-447 limits assumed): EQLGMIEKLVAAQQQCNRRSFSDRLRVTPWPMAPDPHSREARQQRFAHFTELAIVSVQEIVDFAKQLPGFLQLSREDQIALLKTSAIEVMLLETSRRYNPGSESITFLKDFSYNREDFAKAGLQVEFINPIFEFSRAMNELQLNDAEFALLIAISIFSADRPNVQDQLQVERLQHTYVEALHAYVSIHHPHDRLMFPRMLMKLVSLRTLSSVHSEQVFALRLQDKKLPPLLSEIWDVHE
In short: (§1)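 LXR alpha- or beta-LBD added to test compounds, then fluorescein-labelled coactivator peptide plus terbium anti-GST antibody. After incubation at room temperature, TR-FRET read on a filter-based plate reader.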

[2] = target: T2, glutathione-S-transferase (GST) tagged LXRbeta LBD (ligand binding domain) (Homo sapiens, UniProt P55055); assay: LanthaScreen TR-FRET Liver X Receptor Coactivator Assay, LXR beta; type: biochemical; details: for EC50: LXR beta IP, potency (Inflection Point), compound-induced co-activator recruitment, TR-FRET; for Emax: read-out: LXR beta actiivty at max dose, efficacy (% Emax) in relation to reference dual agonist T0901317; for LXR beta actiivty at max dose: efficacy (% Emax) in relation to reference dual agonist T0901317
T2 construct: purchased Invitrogen pv4658
T2 sequence (P55055 222-460 limits assumed): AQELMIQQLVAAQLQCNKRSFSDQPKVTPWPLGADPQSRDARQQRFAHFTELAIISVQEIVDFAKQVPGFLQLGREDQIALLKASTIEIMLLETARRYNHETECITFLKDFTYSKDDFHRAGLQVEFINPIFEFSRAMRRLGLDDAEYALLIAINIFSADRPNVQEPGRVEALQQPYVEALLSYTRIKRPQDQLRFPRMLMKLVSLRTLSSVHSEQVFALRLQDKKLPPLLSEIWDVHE
In short: as §1

[3] = efficacy (% Emax) in relation to reference dual agonist T0901317, read-out: LXR alpha actiivty at max dose
[4] = potency (Inflection Point), compound-induced co-activator recruitment, TR-FRET, read-out: LXR alpha IP
[5] = LXR alpha IP, potency (Inflection Point), compound-induced co-activator recruitment, TR-FRET
[6] = read-out: LXR alpha actiivty at max dose, efficacy (% Emax) in relation to reference dual agonist T0901317
[7] = read-out: LXR alpha actiivty at max dose
[8] = potency (Inflection Point), compound-induced co-activator recruitment, TR-FRET

CN(C)C(=O)c1ccc(OCC[C@H]2C[C@H]2C2CCN(C(=O)[C@](O)(c3ccccc3)C(F)(F)F)CC2)cc1C#N (single isomer, unassigned) [Example 11-1, 2-cyano-N,N-dimethyl-4-(2-((1R,2S or 1S,2R)-2-(1-((R or S)-3,3,3-trifluoro-2-hydroxy-2-phenylpropanoyl)piperidin-4-yl)cyclopropyl)ethoxy)benzamide]
Emax [1, 3]: 23%
EC50 [1, 4]: 1.42 µM
EC50 [2]: 0.106 µM
Emax [2]: 78%

CN(C)C(=O)c1ccc(O[C@H]2C[C@@H](CC3CCN(C(=O)[C@](O)(c4cc(F)cc(Cl)c4)C(F)(F)F)CC3)C2)cc1Cl (single isomer, unassigned) [Example 37-10, 2-chloro-4-((1R,3s)-3-((1-((R or S)-2-(3-chloro-5-fluorophenyl)-3,3,3-trifluoro-2-hydroxypropanoyl)piperidin-4-yl)methyl)cyclobutoxy)-N,N-dimethylbenzamide]
EC50 [1, 5]: 0.318 µM
Emax [1, 6]: 46%
EC50 [2]: 0.005 µM
Emax [2]: 140%

CN(C)C(=O)c1ccc(OCCC[C@H]2CC23CCN(C(=O)[C@@](O)(c2ccccc2)C(F)(F)F)CC3)cc1Cl (single isomer, unassigned) [Example 14-1, 2-chloro-N,N-dimethyl-4-(3-((S or R)-6-((S or R)-3,3,3-trifluoro-2-hydroxy-2-phenylpropanoyl)-6-azaspiro[2.5]octan-1-yl)propoxy)benzamide]
EC50 ([1]; LXR alpha IP): 0.765 µM
Emax [1, 7]: 9%
EC50 [2]: 0.065 µM
Emax [2]: 99%

O=C(c1ccc(OCCCCC2CCN(C(=O)[C@](O)(c3ccccc3)C(F)(F)F)CC2)cc1Cl)N1CCC[C@H]1CO (single isomer, unassigned) [Example 8-7, (R or S)-1-(4-(4-(3-chloro-4-((S or R)-2-(hydroxymethyl)pyrrolidine-1-carbonyl)phenoxy)butyl)piperidin-1-yl)-3,3,3-trifluoro-2-hydroxy-2-phenylpropan-1-one]
EC50 [1, 5]: 0.131 µM
Emax [1, 6]: 42%
EC50 [2]: 0.007 µM
Emax [2]: 48%

CN(C)C(=O)c1ccc(OCC[C@@H]2CC23CCN(C(=O)[C@](N)(c2ccccc2)C(F)(F)F)CC3)cc1Cl (single isomer, unassigned) [Example 12-21, 4-(2-((S or R)-6-((R or S)-2-amino-3,3,3-trifluoro-2-phenylpropanoyl)-6-azaspiro[2.5]octan-1-yl)ethoxy)-2-chloro-N,N-dimethylbenzamide]
EC50 [1, 5]: 1.4 µM
Emax [1, 6]: 23%
EC50 [2]: 0.042 µM
Emax [2]: 47%

CN(C)C(=O)c1ccc(OCCCC2CC3(CCN(C(=O)C(O)(c4ccccc4)C(F)(F)F)CC3)C2)cc1Cl (single isomer, unassigned) [Example 35-1, 2-chloro-N,N-dimethyl-4-(3-(7-((R or S)-3,3,3-trifluoro-2-hydroxy-2-phenylpropanoyl)-7-azaspiro[3.5]nonan-2-yl)propoxy)benzamide]
Emax [1, 3]: 27%
EC50 [1, 4]: 0.546 µM
EC50 [2]: 0.069 µM
Emax [2]: 61%

CCC(C)(C(=O)N1CCC2(CC1)C[C@H]2CCOc1ccc(C(=O)N(C)C)c(Cl)c1)c1ccccc1 (single isomer, unassigned) [Example 12-13, 2-chloro-N,N-dimethyl-4-(2-((1S or 1R)-6-(2-methyl-2-phenylbutanoyl)-6-azaspiro[2.5]octan-1-yl)ethoxy)benzamide]
EC50 [1, 5]: 0.505 µM
Emax [1, 6]: 26%
EC50 [2]: 0.017 µM
Emax [2]: 72%

COc1cccc([C@](O)(C(=O)N2CCC(CC[C@H](C)COc3ccc(C(=O)N(C)C)c(Cl)c3)CC2)C(F)(F)F)c1 (single isomer, unassigned) [Example 23-2, 2-chloro-N,N-dimethyl-4-((S or R)-2-methyl-4-(1-((S or R)-3,3,3-trifluoro-2-hydroxy-2-(3-methoxyphenyl)propanoyl)piperidin-4-yl)butoxy)benzamide]
LXR alpha IP [1, 8]: No IP
Emax [1, 6]: 0%
EC50 [2]: 0.019 µM
Emax [2]: 53%

CC(C)(C(=O)N1CCC2(CC1)CC(CCOc1ccc(C(=O)N3CCCC3)c(Cl)c1)C2)c1ccccc1 [Example 34-3, 1-(2-(2-(3-chloro-4-(pyrrolidine-1-carbonyl)phenoxy)ethyl)-7-azaspiro[3.5]nonan-7-yl)-2-methyl-2-phenylpropan-1-one]
EC50 [1, 5]: 0.292 µM
Emax [1, 6]: 13%
EC50 [2]: 0.07 µM
Emax [2]: 65%

CN(C)C(=O)c1ccc(OCCCCC2CCN(S(=O)(=O)c3c(Cl)cccc3Cl)CC2)nc1Cl [Example 7-2, 2-chloro-6-(4-(1-(2,6-dichlorophenylsulfonyl)piperidin-4-yl)butoxy)-N,N-dimethylnicotinamide]
EC50 [1, 5]: 0.429 µM
Emax [1, 6]: 80%
EC50 [2]: 0.023 µM
Emax [2]: 122%

CN(C)C(=O)c1ccc(O[C@H]2C[C@@H](CC3CCN(C(=O)[C@](O)(c4cccc(OC(F)F)c4)C(F)(F)F)CC3)C2)cc1Cl (single isomer, unassigned) [Example 37-9, 2-chloro-4-((1R,3s)-3-((1-((R or S)-2-(3-(difluoromethoxy)phenyl)-3,3,3-trifluoro-2-hydroxypropanoyl)piperidin-4-yl)methyl)cyclobutoxy)-N,N-dimethylbenzamide]
EC50 [1, 5]: 1.02 µM
Emax [1, 6]: 25%
EC50 [2]: 0.016 µM
Emax [2]: 111%

CN(C)C(=O)c1ccc(OCCCC2CCN(C(=O)c3cc(F)ccc3F)CC2)cc1Cl [Example 3-1, 2-chloro-4-(3-(1-(2,5-difluorobenzoyl)piperidin-4-yl)propoxy)-N,N-dimethylbenzamide]
LXR alpha IP [1]: No IP
Emax [1, 7]: 32%
EC50 [2]: 0.501 µM
Emax [2]: 62%

CC(CCCOc1ccc(C(=O)N(C)C)c(Cl)c1)C1CCN(C(=O)C(O)(c2ccccc2)C(F)(F)F)CC1 (single isomer, unassigned) [Example 26-2, 2-chloro-N,N-dimethyl-4-((R or S)-4-(1-((R or S)-3,3,3-trifluoro-2-hydroxy-2-phenylpropanoyl)piperidin-4-yl)pentyloxy)benzamide]
EC50 [1, 5]: 0.103 µM
Emax [1, 6]: 41%
EC50 [2]: 0.006 µM
LXR beta actiivty at max dose [2]: 71%

CN(C)C(=O)c1ccc(OCCC2CC23CCN(C(=O)Cc2cccc(Br)c2)CC3)cc1Cl (single isomer, unassigned) [Example 12-3, (R or S)-4-(2-(6-(2-(3-bromophenyl)acetyl)-6-azaspiro[2.5]octan-1-yl)ethoxy)-2-chloro-N,N-dimethylbenzamide]
LXR alpha IP [1, 8]: No IP
Emax [1, 6]: 1%
EC50 [2]: 0.153 µM
Emax [2]: 28%

CN(C)C(=O)c1ccc(OCCC2CC23CCN(C(=O)C2(c4ccccc4)CCCC2)CC3)cc1Cl (single isomer, unassigned) [Example 12-1, (R or S)-2-chloro-N,N-dimethyl-4-(2-(6-(1-phenylcyclopentanecarbonyl)-6-azaspiro[2.5]octan-1-yl)ethoxy)benzamide]
Emax [1, 3]: 1%
LXR alpha IP [1, 8]: No IP
EC50 [2]: 0.024 µM
Emax [2]: 58%

CC(C)C(O)(C(=O)N1CCC(C2CC2COc2ccc(C(=O)N(C)C)c(Cl)c2)CC1)C(F)(F)F (single isomer, unassigned) [Example 32-2, 2-chloro-4-(((1R,2S or 1S,2R)-2-(1-((R or S)-2-hydroxy-3-methyl-2-(trifluoromethyl)butanoyl)piperidin-4-yl)cyclopropyl)methoxy)-N,N-dimethylbenzamide]
LXR alpha actiivty at max dose ([1]; efficacy (% Emax) in relation to reference dual agonist T0901317): 8%
LXR alpha IP [1, 8]: No IP
EC50 [2]: 0.206 µM
LXR beta actiivty at max dose [2]: 73%

CCOc1cccc([C@@](O)(C(=O)N2CCC(C[C@H]3C[C@@H](Oc4ccc(C(=O)N(C)C)c(Cl)c4)C3)CC2)C(F)(F)F)c1 (single isomer, unassigned) [Example 37-3, 2-chloro-4-((1R,3s)-3-((1-((R or S)-2-(3-ethoxyphenyl)-3,3,3-trifluoro-2-hydroxypropanoyl)piperidin-4-yl)methyl)cyclobutoxy)-N,N-dimethylbenzamide]
LXR alpha IP [1, 8]: No IP
Emax [1, 6]: 9%
EC50 [2]: 0.017 µM
Emax [2]: 124%

CC(CCC1CCN(C(=O)[C@](O)(c2ccccc2)C(F)(F)F)CC1)COc1ccc(C(=O)N(C)C)c(Cl)c1 (single isomer, unassigned) [Example 23-1, 2-chloro-N,N-dimethyl-4-((R or S)-2-methyl-4-(1-((R or S)-3,3,3-trifluoro-2-hydroxy-2-phenylpropanoyl)piperidin-4-yl)butoxy)benzamide]
Emax [1, 3]: 23%
EC50 [1, 4]: 0.436 µM
EC50 [2]: 0.024 µM
Emax [2]: 74%
